Among the data in PubChem BioAssay AID256 (DTP/NCI, 2004) are T/C values, retold here.

Values joined by “and” are separate entries in the source; they are usually repeats but may differ in a detail not shown here. Identical values can stand only once. Toxic doses and inconclusive results are not listed.

The test system of the assay is CD2F1 mice, L1210 leukemia ip, survival T/C. In words: NCI In Vivo Anticancer Drug Screen. Data for tumor model L1210 Leukemia (intraperitoneal) in CD2F1 (CDF1) mice. The settings on record: higher = longer survival. The essentials: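 Mice carrying a transplanted tumor received test compound or vehicle alone. The value is the measurement in the treated group divided by that in the vehicle-treated control group.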

Setting [1] is: endpoint: mean survival time, dose: 100.0 mg/kg/injection, schedule: Q01DX001 (ip), vehicle: saline with Tween-80.
Where [2] appears, read: endpoint: mean survival time, dose: 200.0 mg/kg/injection, schedule: Q01DX001 (ip), vehicle: saline with Tween-80.
The mark [3] stands for this setting: endpoint: mean survival time, dose: 12.5 mg/kg/injection, schedule: Q01DX009 (ip), vehicle: saline with Tween-80.
Setting [4] is: endpoint: mean survival time, dose: 25.0 mg/kg/injection, schedule: Q01DX009 (ip), vehicle: saline with Tween-80.
Where [5] appears, read: endpoint: mean survival time, dose: 100.0 mg/kg/injection, schedule: Q04DX003 (ip), vehicle: saline with Tween-80.
The mark [6] stands for this setting: endpoint: mean survival time, dose: 200.0 mg/kg/injection, schedule: Q04DX003 (ip), vehicle: saline with Tween-80.
[7] abbreviates: endpoint: mean survival time, dose: 400.0 mg/kg/injection, schedule: Q01DX001 (ip), vehicle: saline with Tween-80.
[8] abbreviates: endpoint: mean survival time, dose: 100.0 mg/kg/injection, schedule: Q04DX002 (ip), vehicle: saline with Tween-80.
Where [9] appears, read: endpoint: mean survival time, dose: 200.0 mg/kg/injection, schedule: Q04DX002 (ip), vehicle: saline with Tween-80.
[10] abbreviates: endpoint: mean survival time, dose: 400.0 mg/kg/injection, schedule: Q04DX002 (ip), vehicle: saline with Tween-80.
Setting [11] is: endpoint: mean survival time, dose: 50.0 mg/kg/injection, schedule: Q01DX009 (ip), vehicle: saline with Tween-80.
[12] abbreviates: endpoint: mean survival time, dose: 100.0 mg/kg/injection, schedule: Q01DX009 (ip), vehicle: saline with Tween-80.
Where [13] appears, read: endpoint: mean survival time, dose: 200.0 mg/kg/injection, schedule: Q01DX009 (ip), vehicle: saline with Tween-80.

For the molecule `O=C[c-]1[c-][c-][c-][c-]1.[Fe+2].[c-]1[c-][c-][cH-][c-]1`, the T/C was 117 % of control under setting [1] and 100 % of control under setting [2].

As for `CN1CCCN(O)C1=O`, the T/C is 94 % of control (endpoint: mean survival time, dose: 37.5 mg/kg/injection, schedule: Q01DX007 (ip), vehicle: saline); 92 % of control (endpoint: mean survival time, dose: 75.0 mg/kg/injection, schedule: Q01DX007 (ip), vehicle: saline); 94 % of control (endpoint: mean survival time, dose: 150.0 mg/kg/injection, schedule: Q01DX007 (ip), vehicle: saline); 100 % of control (endpoint: mean survival time, dose: 300.0 mg/kg/injection, schedule: Q01DX007 (ip), vehicle: saline); 100 % of control (endpoint: mean survival time, dose: 600.0 mg/kg/injection, schedule: Q01DX007 (ip), vehicle: saline).

With `CC1(C)N=C(N)N=C(N)N1c1cccc(CCCCOc2ccccc2)c1`, the T/C (endpoint: mean survival time, dose: 6.25 mg/kg/injection, schedule: Q01DX009 (ip), vehicle: saline with Tween-80) was 101 % of control; the T/C under setting [3] was 111 % of control; the T/C under setting [4] was 108 % of control.

`c1nc(SSc2ncnc3nc[nH]c23)c2[nH]cnc2n1`: the T/C is 186 % of control under setting [3]; 151 % of control under setting [4]; 150 % of control (endpoint: mean survival time, dose: 30.0 mg/kg/injection, schedule: Q01DX001 (ip), vehicle: saline with Tween-80); 157 % of control (endpoint: mean survival time, dose: 66.0 mg/kg/injection, schedule: Q01DX001 (ip), vehicle: saline with Tween-80); 155 % of control under setting [1]; 162 % of control (endpoint: mean survival time, dose: 150.0 mg/kg/injection, schedule: Q01DX001 (ip), vehicle: saline with Tween-80).

As to `CCOC(OCC)c1nc(N)nc(N)c1-c1ccc(Cl)c(Cl)c1`, the T/C reads like this: (endpoint: mean survival time, dose: 134.0 mg/kg/injection, schedule: Q01DX009 (ip), vehicle: other) 123 % of control; (endpoint: mean survival time, dose: 200.0 mg/kg/injection, schedule: Q01DX009 (ip), vehicle: other) 111 % of control; (endpoint: mean survival time, dose: 300.0 mg/kg/injection, schedule: Q01DX009 (ip), vehicle: other) 88 % of control.

As for `OC1(c2ccccc2)CCN(C/C=C/c2ccc(Cl)cc2)CC1`, the T/C (endpoint: median survival time, dose: 25.0 mg/kg/injection, schedule: Q04DX003 (ip), vehicle: saline with Tween-80) is 100 % of control and the T/C (endpoint: median survival time, dose: 50.0 mg/kg/injection, schedule: Q04DX003 (ip), vehicle: saline with Tween-80) is 90 % of control.

With `COc1ccc2nc3c(Cl)cccc3c(Cl)c2c1`, the T/C was 98 % of control (endpoint: mean survival time, dose: 50.0 mg/kg/injection, schedule: Q04DX003 (ip), vehicle: saline with Tween-80); 97 % of control under setting [5]; 87 % of control under setting [2]; 101 % of control under setting [6].

In the case of `CCC1CC(=O)C2Nc3ccccc3C2C1` (configuration not stated), the T/C runs as follows: under setting [1], 88 % of control; under setting [7], 86 % of control.

`O=C(C1CC1)N1CCC(O)(c2ccccc2)CC1`: the T/C is 97 % of control under setting [8], 93 % of control under setting [9] and 93 % of control under setting [10].

For the molecule `O=C(CCCCCC(=O)OCCBr)OCCBr`, the T/C is 102 % of control (endpoint: mean survival time, dose: 50.0 mg/kg/injection, schedule: Q04DX003 (ip), vehicle: saline sonified); 100 % of control (endpoint: mean survival time, dose: 100.0 mg/kg/injection, schedule: Q04DX003 (ip), vehicle: saline sonified); 93 % of control (endpoint: mean survival time, dose: 200.0 mg/kg/injection, schedule: Q04DX003 (ip), vehicle: saline sonified).

For `CCCCCCCCCCCCCCCC(=O)NCCN(CC)CC`, the T/C runs as follows: under setting [4], 95 % of control; under setting [11], 98 % of control; (endpoint: mean survival time, dose: 75.0 mg/kg/injection, schedule: Q04DX003 (ip), vehicle: saline with Tween-80) 97 % of control; (endpoint: mean survival time, dose: 150.0 mg/kg/injection, schedule: Q01DX001 (ip), vehicle: saline) 98 % of control.

For `CCOC(=O)CC(O)CC` (configuration not stated), the T/C was 95 % of control (endpoint: mean survival time, dose: 100.0 mg/kg/injection, schedule: Q04DX002 (ip), vehicle: saline); 95 % of control (endpoint: mean survival time, dose: 200.0 mg/kg/injection, schedule: Q04DX002 (ip), vehicle: saline); 95 % of control (endpoint: mean survival time, dose: 400.0 mg/kg/injection, schedule: Q04DX002 (ip), vehicle: saline).

As to `Cc1nc2cc3ccccc3cc2n1C1OC(CO)C(O)C1O` (configuration not stated), the T/C runs as follows: (endpoint: median survival time, dose: 26.5 mg/kg/injection, schedule: Q01DX005 (ip), vehicle: saline with Tween-80) 92 % of control; (endpoint: median survival time, dose: 53.0 mg/kg/injection, schedule: Q01DX005 (ip), vehicle: saline with Tween-80) 103 % of control; (endpoint: median survival time, dose: 106.0 mg/kg/injection, schedule: Q01DX005 (ip), vehicle: saline with Tween-80) 93 % of control; (endpoint: median survival time, dose: 212.0 mg/kg/injection, schedule: Q01DX005 (ip), vehicle: saline with Tween-80) 88 % of control.

For `[CH3][Sb]([CH3])([CH3])([O]C(=O)CF)[O]C(=O)CF`, the T/C runs as follows: (endpoint: mean survival time, dose: 1.25 mg/kg/injection, schedule: Q01DX009 (ip), vehicle: saline) 102 % of control; (endpoint: mean survival time, dose: 2.5 mg/kg/injection, schedule: Q01DX009 (ip), vehicle: saline) 100 % of control; (endpoint: mean survival time, dose: 5.0 mg/kg/injection, schedule: Q01DX009 (ip), vehicle: saline) 106 % of control.

As to `CN(C)C(=S)Oc1ccc(S(=O)(=O)F)cc1`, the T/C is 98 % of control under setting [8], 91 % of control under setting [9] and 109 % of control under setting [10].

Consider `CN(Cc1ccccc1)N=Nc1ccc(C#N)cc1`, for which the T/C by setting is: under setting [12], 104 % of control; under setting [13], 112 % of control; (endpoint: mean survival time, dose: 400.0 mg/kg/injection, schedule: Q01DX009 (ip), vehicle: saline with Tween-80) 112 % of control.

With `COc1cc(Cl)ccc1NC(=O)Nc1cccc(C(=O)O)c1`, the T/C was 97 % of control under setting [3]; 90 % of control under setting [4]; 90 % of control under setting [11]; 96 % of control under setting [12]; 90 % of control under setting [13].

Take `C=CCN(CC=C)C(=O)OCC`: the T/C is 97 % of control under setting [12]; 97 % of control (endpoint: mean survival time, dose: 100.0 mg/kg/injection, schedule: Q04DX003 (ip), vehicle: saline); 96 % of control under setting [13]; 95 % of control (endpoint: mean survival time, dose: 200.0 mg/kg/injection, schedule: Q04DX003 (ip), vehicle: saline); 101 % of control (endpoint: mean survival time, dose: 400.0 mg/kg/injection, schedule: Q04DX003 (ip), vehicle: saline).

Consider `COc1ccc(/C=N/NC(N)=S)cc1`, for which the T/C (endpoint: mean survival time, dose: 16.0 mg/kg/injection, schedule: Q01DX008 (iv), vehicle: saline) was 98 % of control; the T/C (endpoint: mean survival time, dose: 32.0 mg/kg/injection, schedule: Q01DX008 (iv), vehicle: saline) was 100 % of control; the T/C (endpoint: mean survival time, dose: 32.0 mg/kg/injection, schedule: Q01DX009 (ip), vehicle: saline) is 100 % of control and 109 % of control; the T/C (endpoint: mean survival time, dose: 64.0 mg/kg/injection, schedule: Q01DX008 (iv), vehicle: saline) was 97 % of control; the T/C (endpoint: mean survival time, dose: 64.0 mg/kg/injection, schedule: Q01DX009 (ip), vehicle: saline) was 98 % of control; the T/C (endpoint: mean survival time, dose: 128.0 mg/kg/injection, schedule: Q01DX009 (ip), vehicle: saline) is 100 % of control and 109 % of control. Also, the T/C (endpoint: mean survival time, dose: 256.0 mg/kg/injection, schedule: Q01DX009 (ip), vehicle: saline) was 104 % of control and 112 % of control.

`CC(=O)NC(CSCC(=O)c1ccccc1)C(=O)O` (configuration not stated): the T/C under setting [5] is 98 % of control; the T/C under setting [6] was 102 % of control; the T/C (endpoint: mean survival time, dose: 400.0 mg/kg/injection, schedule: Q04DX003 (ip), vehicle: saline with Tween-80) is 100 % of control.

In the case of `CCCCCCCCCCCCN1C(C)=CS/C1=C\C=C\c1scc(C)[n+]1CCCCCCCCCCCC`, for the setting “endpoint: mean survival time, dose: 0.78 mg/kg/injection, schedule: Q01DX009 (ip), vehicle: saline with Tween-80”, the T/C is 123 % of control.

As for `COc1nc(NC2OC(CO)C(O)C(O)C2O)c(C(C)=O)c(=O)n1C` (configuration not stated), the T/C runs as follows: (endpoint: median survival time, dose: 12.5 mg/kg/injection, schedule: Q01DX005 (ip), vehicle: saline with Tween-80) 94 % of control; (endpoint: median survival time, dose: 25.0 mg/kg/injection, schedule: Q01DX005 (ip), vehicle: saline with Tween-80) 98 % of control; (endpoint: median survival time, dose: 50.0 mg/kg/injection, schedule: Q01DX005 (ip), vehicle: saline with Tween-80) 100 % of control; (endpoint: median survival time, dose: 100.0 mg/kg/injection, schedule: Q01DX005 (ip), vehicle: saline with Tween-80) 97 % of control; (endpoint: median survival time, dose: 200.0 mg/kg/injection, schedule: Q01DX005 (ip), vehicle: saline with Tween-80) 98 % of control.

With `COC(=O)/N=C(/NC(=O)OC)SC`, the T/C under setting [1] was 101 % of control, the T/C under setting [2] is 103 % of control and the T/C under setting [7] was 98 % of control.
